{"source": "patent US12655116B2", "about": "“Substituted isophthalic acid diamides” (Bayer Aktiengesellschaft, priority 2020, dated 2026)", "key": {"[1]": {"system": "ABUTH", "assay": "Pre-emergence herbicidal action against ABUTH", "type": "in vivo, Abutilon theophrasti", "procedure,_shortened": "(§1)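 Sandy loam pots, seeds covered with soil, then surface-treated with WP or EC formulations at 600–800 l/ha water plus 0.2% wetting agent. Greenhouse, 3 weeks. Percent damage vs untreated controls.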"}, "[2]": {"system": "VERPE", "assay": "Post-emergence herbicidal action against VERPE", "type": "in vivo, Veronica persica", "conditions": "20 g/ha", "procedure,_shortened": "(§2)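 Herbicidal action is a visual percentage rating (0% = as untreated control, 100% = plants dead) made roughly 3 weeks after treatment. Plants were grown in sandy loam in the greenhouse and treated at the one-leaf stage, 2 to 3 weeks post-sowing. Treatment was a foliar spray of wettable-powder or emulsion-concentrate formulations at 600 to 800 l/ha water plus 0.2% wetting agent.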"}, "[3]": {"system": "MATIN", "assay": "Pre-emergence herbicidal action against MATIN", "type": "in vivo, Matricaria inodora", "procedure,_shortened": "as §1"}, "[4]": {"system": "VIOTR", "assay": "Post-emergence herbicidal action against VIOTR", "type": "in vivo, Viola tricolor", "procedure,_shortened": "as §2"}, "[5]": {"system": "PHBPU", "assay": "Post-emergence herbicidal action against PHBPU", "type": "in vivo, Pharbitis purpurea", "conditions": "dosage 20 g/ha", "procedure,_shortened": "as §2"}, "[6]": {"system": "ECHCG", "assay": "Post-emergence herbicidal action against ECHCG", "type": "in vivo, Echinochloa crus-galli", "procedure,_shortened": "as §2"}, "[7]": {"system": "AMARE", "assay": "Post-emergence herbicidal action against AMARE", "type": "in vivo, Amaranthus retroflexus", "conditions": "20 g/ha, visual assessment about 3 weeks after treatment, 100% = plants have died, 0% = like control plants", "procedure,_shortened": "as §2"}, "[8]": {"system": "AMARE", "assay": "Pre-emergence herbicidal action against AMARE", "type": "in vivo, Amaranthus retroflexus", "procedure,_shortened": "as §1"}, "[9]": {"system": "MATIN", "assay": "Post-emergence herbicidal action against MATIN", "type": "in vivo, Matricaria inodora", "conditions": "dosage 20 g/ha", "procedure,_shortened": "as §2"}, "[10]": {"system": "DIGSA", "assay": "Post-emergence herbicidal action against DIGSA", "type": "in vivo, Digitaria sanguinalis", "conditions": "20 g/ha", "procedure,_shortened": "as §2"}, "[11]": {"system": "AVEFA", "assay": "Pre-emergence herbicidal action against AVEFA", "type": "in vivo, Avena fatua", "procedure,_shortened": "as §1"}, "[12]": {"system": "PHBPU", "assay": "Pre-emergence herbicidal action against PHBPU", "type": "in vivo, Pharbitis purpurea", "procedure,_shortened": "as §1"}, "[13]": {"system": "SETVI", "assay": "Pre-emergence herbicidal action against SETVI", "type": "in vivo, Setaria viridis", "procedure,_shortened": "as §1"}, "[14]": {"system": "ECHCG", "assay": "Pre-emergence herbicidal action against ECHCG", "type": "in vivo, Echinochloa crus-galli", "procedure,_shortened": "as §1"}, "[15]": {"system": "DIGSA", "assay": "Pre-emergence herbicidal action against DIGSA", "type": "in vivo, Digitaria sanguinalis", "procedure,_shortened": "as §1"}, "[16]": {"system": "ALOMY", "assay": "Pre-emergence herbicidal action against ALOMY", "type": "in vivo, Alopecurus myosuroides", "conditions": "pre-emergence", "procedure,_shortened": "as §1"}, "[17]": {"system": "VIOTR", "assay": "Pre-emergence herbicidal action against VIOTR", "type": "in vivo, Viola tricolor", "procedure,_shortened": "as §1"}, "[18]": {"system": "ALOMY", "assay": "Post-emergence herbicidal action against ALOMY", "type": "in vivo, Alopecurus myosuroides", "conditions": "dosage 20 g/ha, visual assessment about 3 weeks after treatment vs untreated controls", "procedure,_shortened": "as §2"}, "[19]": {"system": "LOLRI", "assay": "Pre-emergence herbicidal action against LOLRI", "type": "in vivo, Lolium rigidum", "conditions": "80 g/ha", "procedure,_shortened": "as §1"}, "[20]": {"system": "ABUTH", "assay": "Post-emergence herbicidal action against ABUTH", "type": "in vivo, Abutilon theophrasti", "conditions": "Abutilon theophrasti, 504 h, visual assessment about 3 weeks after treatment vs untreated controls", "procedure,_shortened": "as §2"}, "[21]": {"system": "SETVI", "assay": "Post-emergence herbicidal action against SETVI", "type": "in vivo, Setaria viridis", "conditions": "Setaria viridis, 504 h", "procedure,_shortened": "as §2"}, "[22]": {"conditions": "80 g/ha, scored visually after 3 weeks vs untreated controls (100% = plants have died, 0% = like control plants)"}}}
{"smiles": "CCn1nnnc1NC(=O)c1ccc(C(F)(F)F)c(C(=O)NCC(F)F)c1Cl", "note": "[Example 2-134]", "values": [{"measurement": "Pre-emergence action against ABUTH (herbicidal activity)", "setting": "[1]; [22]", "value": 100, "unit": "%"}, {"measurement": "Pre-emergence action against ABUTH (herbicidal activity in percent)", "setting": "[1]; dosage 20 g/ha, scored visually after 3 weeks vs untreated controls, 100% = plants have died, 0% = like control plants", "value": 100, "unit": "%"}, {"measurement": "Post-emergence action against VERPE in %", "setting": "[2]", "value": 80, "unit": "%"}, {"measurement": "Pre-emergence action against MATIN in %", "setting": "[3]; dosage 20 g/ha", "value": 90, "unit": "%"}, {"measurement": "Pre-emergence action against MATIN in %", "setting": "[3]; dosage 80 g/ha", "value": 100, "unit": "%"}, {"measurement": "Post-emergence action against VIOTR in %", "setting": "[4]; 5 g/ha", "value": 80, "unit": "%"}, {"measurement": "Post-emergence action against VIOTR in %", "setting": "[4]; 20 g/ha", "value": 90, "unit": "%"}, {"measurement": "Post-emergence action against PHBPU in %", "setting": "[5]", "value": 90, "unit": "%"}, {"measurement": "Post-emergence action against ECHCG in %", "setting": "[6]; dosage 20 g/ha", "value": 90, "unit": "%"}, {"measurement": "Post-emergence action at 20 g/ha against AMARE in %", "setting": "[7]", "value": 100, "unit": "%"}, {"measurement": "Pre-emergence action against AMARE in %", "setting": "[8]; 20 g/ha, scored visually after 3 weeks vs untreated controls, 100% = plants have died, 0% = like control plants", "value": 100, "unit": "%"}, {"measurement": "Pre-emergence action against AMARE in %", "setting": "[8]; [22]", "value": 100, "unit": "%"}, {"measurement": "Post-emergence action against MATIN in %", "setting": "[9]", "value": 80, "unit": "%"}, {"measurement": "Post-emergence action against DIGSA", "setting": "[10]", "value": 80, "unit": "%"}, {"measurement": "Pre-emergence action against AVEFA", "setting": "[11]; 20 g/ha, scored visually after 3 weeks, 100% = plants have died, 0% = like control plants", "value": 80, "unit": "%"}, {"measurement": "Pre-emergence action against AVEFA in %", "setting": "[11]; 80 g/ha, pre-emergence", "value": 90, "unit": "%"}, {"measurement": "Pre-emergence action against PHBPU in %", "setting": "[12]; dosage 20 g/ha", "value": 80, "unit": "%"}, {"measurement": "Pre-emergence action against PHBPU in %", "setting": "[12]; dosage 80 g/ha", "value": 90, "unit": "%"}, {"measurement": "Pre-emergence action against SETVI in %", "setting": "[13]; dosage 20 g/ha", "value": 80, "unit": "%"}, {"measurement": "Pre-emergence action against SETVI in %", "setting": "[13]; dosage 80 g/ha", "value": 100, "unit": "%"}, {"measurement": "Pre-emergence action against ECHCG in %", "setting": "[14]; 20 g/ha", "value": 80, "unit": "%"}, {"measurement": "Pre-emergence action against ECHCG in %", "setting": "[14]; 80 g/ha", "value": 100, "unit": "%"}, {"measurement": "Pre-emergence action against DIGSA in %", "setting": "[15]; dosage 20 g/ha", "value": 80, "unit": "%"}, {"measurement": "Pre-emergence action against DIGSA in %", "setting": "[15]; dosage 80 g/ha", "value": 100, "unit": "%"}, {"measurement": "Pre-emergence action against ALOMY (herbicidal activity)", "setting": "[16]; [22]", "value": 90, "unit": "%"}, {"measurement": "Pre-emergence action against VIOTR in %", "setting": "[17]; dosage 20 g/ha", "value": 100, "unit": "%"}, {"measurement": "Pre-emergence action against VIOTR in %", "setting": "[17]; dosage 80 g/ha", "value": 100, "unit": "%"}, {"measurement": "Post-emergence action against ALOMY in %", "setting": "[18]", "value": 80, "unit": "%"}, {"measurement": "Pre-emergence action against LOLRI in %", "setting": "[19]", "value": 80, "unit": "%"}]}
{"smiles": "CC(C)NC(=O)c1c(Br)ccc(C(=O)Nc2nnnn2C)c1Cl", "note": "[Example 1-185]", "values": [{"measurement": "pest or weed control at 80 g/ha", "setting": "[1]; Abutilon theophrasti, 504 h, 80 g/ha, scored visually after 3 weeks vs untreated controls (100% = plants have died, 0% = like control plants)", "value": 100, "unit": "%"}, {"measurement": "pest or weed control at 20 g/ha", "setting": "[1]; Abutilon theophrasti, 504 h, dosage 20 g/ha, scored visually after 3 weeks vs untreated controls, 100% = plants have died, 0% = like control plants, read-out: Pre-emergence action against ABUTH (herbicidal activity in percent)", "value": 100, "unit": "%"}, {"measurement": "pest or weed control at 5 g/ha", "setting": "[20]; dosage 5 g/ha", "value": 80, "unit": "%"}, {"measurement": "pest or weed control at 20 g/ha", "setting": "[20]; dosage 20 g/ha", "value": 90, "unit": "%"}, {"measurement": "pest or weed control at 20 g/ha", "setting": "[2]; Veronica persica, 504 h", "value": 80, "unit": "%"}, {"measurement": "pest or weed control at 20 g/ha", "setting": "[3]; Tripleurospermum inodorum, 504 h, dosage 20 g/ha", "value": 100, "unit": "%"}, {"measurement": "pest or weed control at 80 g/ha", "setting": "[3]; Tripleurospermum inodorum, 504 h, dosage 80 g/ha", "value": 100, "unit": "%"}, {"measurement": "pest or weed control at 20 g/ha", "setting": "[4]; Viola tricolor, 504 h, 20 g/ha", "value": 80, "unit": "%"}, {"measurement": "pest or weed control at 5 g/ha", "setting": "[6]; Echinochloa crus-galli, 504 h, dosage 5 g/ha", "value": 90, "unit": "%"}, {"measurement": "pest or weed control at 20 g/ha", "setting": "[6]; Echinochloa crus-galli, 504 h, dosage 20 g/ha", "value": 100, "unit": "%"}, {"measurement": "pest or weed control at 20 g/ha", "setting": "[7]; Amaranthus retroflexus, 504 h", "value": 100, "unit": "%"}, {"measurement": "pest or weed control at 20 g/ha", "setting": "[8]; Amaranthus retroflexus, 504 h, 20 g/ha, scored visually after 3 weeks vs untreated controls, 100% = plants have died, 0% = like control plants", "value": 100, "unit": "%"}, {"measurement": "pest or weed control at 80 g/ha", "setting": "[8]; Amaranthus retroflexus, 504 h, 80 g/ha, scored visually after 3 weeks vs untreated controls, 100% = plants have died, 0% = like control plants", "value": 100, "unit": "%"}, {"measurement": "pest or weed control at 5 g/ha", "setting": "[21]; dosage 5 g/ha", "value": 80, "unit": "%"}, {"measurement": "pest or weed control at 20 g/ha", "setting": "[21]; dosage 20 g/ha", "value": 100, "unit": "%"}, {"measurement": "pest or weed control at 80 g/ha", "setting": "[11]; Avena fatua, 504 h, 80 g/ha, pre-emergence", "value": 100, "unit": "%"}, {"measurement": "pest or weed control at 80 g/ha", "setting": "[12]; Ipomoea purpurea, 504 h, dosage 80 g/ha", "value": 80, "unit": "%"}, {"measurement": "pest or weed control at 80 g/ha", "setting": "[13]; Setaria viridis, 504 h, dosage 80 g/ha", "value": 100, "unit": "%"}, {"measurement": "pest or weed control at 80 g/ha", "setting": "[14]; Echinochloa crus-galli, 504 h, 80 g/ha", "value": 100, "unit": "%"}, {"measurement": "pest or weed control at 80 g/ha", "setting": "[16]; Alopecurus myosuroides, 504 h, 80 g/ha, scored visually after 3 weeks vs untreated controls (100% = plants have died, 0% = like control plants)", "value": 100, "unit": "%"}, {"measurement": "pest or weed control at 20 g/ha", "setting": "[16]; Alopecurus myosuroides, 504 h, 20 g/ha, scored visually after 3 weeks, 100% = plants have died, 0% = like control plants", "value": 90, "unit": "%"}, {"measurement": "pest or weed control at 20 g/ha", "setting": "[17]; Viola tricolor, 504 h, dosage 20 g/ha", "value": 80, "unit": "%"}, {"measurement": "pest or weed control at 80 g/ha", "setting": "[17]; Viola tricolor, 504 h, dosage 80 g/ha", "value": 100, "unit": "%"}, {"measurement": "pest or weed control at 20 g/ha", "setting": "[18]; Alopecurus myosuroides, 504 h", "value": 90, "unit": "%"}, {"measurement": "pest or weed control at 80 g/ha", "setting": "[19]; Lolium rigidum, 504 h", "value": 90, "unit": "%"}]}
